What was measured:
Test in all cases: combination cScore with adagrasib (Bliss gap around IC50) (%PoC); higher = stronger additive effect
[1] = tested on: NCI-H2122
In short: (§1)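 After 24 h in 384-well plates (500 or 800 cells per well), NCI-H2122, NCI-H358 and SW837 cells received concentration matrices and grew for 72 h, except SW837, which grew for 144 h. CellTiter-Glo readings were scaled to vehicle wells and fitted with four-parameter curves. Each score is the averaged Bliss-independence difference (expected minus measured viability) over a region around both monotherapy IC50s, or at top concentrations when no IC50 was reached.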

[2] = tested on: SW837
In short: as §1

[3] = tested on: NCI-H358
In short: as §1

CC(C)N(CCCNC(=O)Nc1ccc(C(C)(C)C)cc1)C[C@H]1O[C@@H](n2ccc3c(N)ncnc32)[C@H](O)[C@@H]1O + C=C(F)C(=O)N1CCN(c2nc(OC[C@@H]3CCCN3C)nc3c2CCN(c2cccc4cccc(Cl)c24)C3)C[C@@H]1CC#N [adagrasib]
combination cScore with adagrasib [1]: 19.1
combination cScore with adagrasib [2]: 2.74
combination cScore with adagrasib [3]: 9.87

C[C@@H]1CN(CC(=O)Nc2ccc3c(c2)Cc2cccc(-c4cc(=O)cc(N5CCOCC5)o4)c2S3)C[C@H](C)O1 + C=C(F)C(=O)N1CCN(c2nc(OC[C@@H]3CCCN3C)nc3c2CCN(c2cccc4cccc(Cl)c24)C3)C[C@@H]1CC#N [adagrasib]
combination cScore with adagrasib [1]: 18.9
combination cScore with adagrasib [2]: 3.63
combination cScore with adagrasib [3]: 6.62

Cc1c(-c2c(-c3ccc(F)o3)sc3ncnc(O[C@H](Cc4ccccc4OCc4ccnn4CC(F)(F)F)C(=O)O)c23)ccc(OCCN2CCN(C)CC2)c1Cl + C=C(F)C(=O)N1CCN(c2nc(OC[C@@H]3CCCN3C)nc3c2CCN(c2cccc4cccc(Cl)c24)C3)C[C@@H]1CC#N [adagrasib]
combination cScore with adagrasib [1]: 8.13
combination cScore with adagrasib [2]: 4.73
combination cScore with adagrasib [3]: 5.46

Cc1c(Cn2c(C)nc3c(C(=O)O)cc(N4CCOCC4)cc32)cccc1C(F)(F)F + C=C(F)C(=O)N1CCN(c2nc(OC[C@@H]3CCCN3C)nc3c2CCN(c2cccc4cccc(Cl)c24)C3)C[C@@H]1CC#N [adagrasib]
combination cScore with adagrasib [1]: 8.98
combination cScore with adagrasib [2]: -1.49
combination cScore with adagrasib [3]: -4.04

Cc1cc(C)c(CNC(=O)c2cc(-c3ccc(N4CCNCC4)nc3)cc3c2c(C)cn3C2CCCC2)c(=O)[nH]1 + C=C(F)C(=O)N1CCN(c2nc(OC[C@@H]3CCCN3C)nc3c2CCN(c2cccc4cccc(Cl)c24)C3)C[C@@H]1CC#N [adagrasib]
combination cScore with adagrasib [1]: 20.3
combination cScore with adagrasib [2]: -0.2
combination cScore with adagrasib [3]: 5.44

Cc1nc(Nc2n[nH]c3c2CN(C(=O)N[C@H](CN(C)C)c2ccccc2)C3(C)C)c2sccc2n1 + C=C(F)C(=O)N1CCN(c2nc(OC[C@@H]3CCCN3C)nc3c2CCN(c2cccc4cccc(Cl)c24)C3)C[C@@H]1CC#N [adagrasib]
combination cScore with adagrasib [1]: 8.47
combination cScore with adagrasib [2]: -0.72
combination cScore with adagrasib [3]: -5.91

O=C(C1CC1)N1CC[C@@H](Cn2c(-c3ccc(-c4ccc5occc5c4)cc3)nc3cnccc32)C1 + C=C(F)C(=O)N1CCN(c2nc(OC[C@@H]3CCCN3C)nc3c2CCN(c2cccc4cccc(Cl)c24)C3)C[C@@H]1CC#N [adagrasib]
combination cScore with adagrasib [1]: 7.98
combination cScore with adagrasib [2]: 7.68
combination cScore with adagrasib [3]: 7.72

O=c1cc(-c2cccc3c2Sc2ccccc2S3)oc(N2CCOCC2)c1 + C=C(F)C(=O)N1CCN(c2nc(OC[C@@H]3CCCN3C)nc3c2CCN(c2cccc4cccc(Cl)c24)C3)C[C@@H]1CC#N [adagrasib]
combination cScore with adagrasib [1]: 12.4
combination cScore with adagrasib [2]: 4.85
combination cScore with adagrasib [3]: 7.9

CC1(C)CCC(c2ccc(Cl)cc2)=C(CN2CCN(c3ccc(C(=O)NS(=O)(=O)c4ccc(N[C@H](CCN5CCOCC5)CSc5ccccc5)c(S(=O)(=O)C(F)(F)F)c4)cc3)CC2)C1 [ABT-263] + C=C(F)C(=O)N1CCN(c2nc(OC[C@@H]3CCCN3C)nc3c2CCN(c2cccc4cccc(Cl)c24)C3)C[C@@H]1CC#N [adagrasib]
combination cScore with adagrasib [1]: 12.1
combination cScore with adagrasib [2]: 30.9
combination cScore with adagrasib [3]: 6.81

COc1cc(CCc2cc(NC(=O)c3ccc(N4CC(C)NC(C)C4)cc3)n[nH]2)cc(OC)c1 (stereo not given) [AZD4547] + C=C(F)C(=O)N1CCN(c2nc(OC[C@@H]3CCCN3C)nc3c2CCN(c2cccc4cccc(Cl)c24)C3)C[C@@H]1CC#N [adagrasib]
combination cScore with adagrasib [1]: 11.3
combination cScore with adagrasib [2]: 5.13
combination cScore with adagrasib [3]: -1.38

CCN(CCCOc1ccc2c(Nc3cc(CC(=O)Nc4cccc(F)c4)[nH]n3)ncnc2c1)CCOP(=O)(O)O [AZD-1152] + C=C(F)C(=O)N1CCN(c2nc(OC[C@@H]3CCCN3C)nc3c2CCN(c2cccc4cccc(Cl)c24)C3)C[C@@H]1CC#N [adagrasib]
combination cScore with adagrasib [1]: 12.7
combination cScore with adagrasib [2]: 4.03
combination cScore with adagrasib [3]: 2.1

CCN1CCN(Cc2ccc(Nc3ncc(F)c(-c4cc(F)c5nc(C)n(C(C)C)c5c4)n3)nc2)CC1 [Abemaciclib] + C=C(F)C(=O)N1CCN(c2nc(OC[C@@H]3CCCN3C)nc3c2CCN(c2cccc4cccc(Cl)c24)C3)C[C@@H]1CC#N [adagrasib]
combination cScore with adagrasib [1]: 5.55
combination cScore with adagrasib [2]: 12.5
combination cScore with adagrasib [3]: 4.46

CN(C)C/C=C/C(=O)Nc1cc2c(Nc3ccc(F)c(Cl)c3)ncnc2cc1O[C@H]1CCOC1 [Afatinib] + C=C(F)C(=O)N1CCN(c2nc(OC[C@@H]3CCCN3C)nc3c2CCN(c2cccc4cccc(Cl)c24)C3)C[C@@H]1CC#N [adagrasib]
combination cScore with adagrasib [1]: 11.1
combination cScore with adagrasib [2]: 21.2
combination cScore with adagrasib [3]: 11.5

COc1cc2nc(C)nc(N[C@H](C)c3cc(N)cc(C(F)(F)F)c3)c2cc1O[C@H]1CCOC1 [BI-3406 (SOSi)] + C=C(F)C(=O)N1CCN(c2nc(OC[C@@H]3CCCN3C)nc3c2CCN(c2cccc4cccc(Cl)c24)C3)C[C@@H]1CC#N [adagrasib]
combination cScore with adagrasib [1]: 28
combination cScore with adagrasib [2]: 19.4
combination cScore with adagrasib [3]: 10.7

Nc1cc(C(F)(F)F)c(-c2cc(N3CCOCC3)nc(N3CCOCC3)n2)cn1 [BKM120] + C=C(F)C(=O)N1CCN(c2nc(OC[C@@H]3CCCN3C)nc3c2CCN(c2cccc4cccc(Cl)c24)C3)C[C@@H]1CC#N [adagrasib]
combination cScore with adagrasib [1]: 12.9
combination cScore with adagrasib [2]: 9.24
combination cScore with adagrasib [3]: 2.43

Cc1nc(NC(=O)N2CCC[C@H]2C(N)=O)sc1-c1ccnc(C(C)(C)C(F)(F)F)c1 [BYL-719] + C=C(F)C(=O)N1CCN(c2nc(OC[C@@H]3CCCN3C)nc3c2CCN(c2cccc4cccc(Cl)c24)C3)C[C@@H]1CC#N [adagrasib]
combination cScore with adagrasib [1]: 14.3
combination cScore with adagrasib [2]: 17
combination cScore with adagrasib [3]: 3.99

COC(=O)[C@]12CCC(C)(C)C[C@H]1[C@H]1C(=O)C=C3[C@@]4(C)C=C(C#N)C(=O)C(C)(C)[C@@H]4CC[C@@]3(C)[C@]1(C)CC2 [Bardoxolone methyl] + C=C(F)C(=O)N1CCN(c2nc(OC[C@@H]3CCCN3C)nc3c2CCN(c2cccc4cccc(Cl)c24)C3)C[C@@H]1CC#N [adagrasib]
combination cScore with adagrasib [1]: 5.12
combination cScore with adagrasib [2]: 0.43
combination cScore with adagrasib [3]: -4.25

O=C(/C=C/c1cccc(S(=O)(=O)Nc2ccccc2)c1)NO [Belinostat] + C=C(F)C(=O)N1CCN(c2nc(OC[C@@H]3CCCN3C)nc3c2CCN(c2cccc4cccc(Cl)c24)C3)C[C@@H]1CC#N [adagrasib]
combination cScore with adagrasib [1]: 7.12
combination cScore with adagrasib [2]: 5.49
combination cScore with adagrasib [3]: -4.65

Cc1c(N)nc([C@H](CC(N)=O)NC[C@H](N)C(N)=O)nc1C(=O)N[C@H](C(=O)N[C@H](C)[C@@H](O)[C@H](C)C(=O)N[C@H](C(=O)NCCc1nc(-c2nc(C(=O)NCCC[S+](C)C)cs2)cs1)[C@@H](C)O)[C@@H](OC1OC(CO)C(O)C(O)C1OC1OC(CO)C(O)C(OC(N)=O)C1O)c1cnc[nH]1 (stereo not given in full) [Bleomycin] + C=C(F)C(=O)N1CCN(c2nc(OC[C@@H]3CCCN3C)nc3c2CCN(c2cccc4cccc(Cl)c24)C3)C[C@@H]1CC#N [adagrasib]
combination cScore with adagrasib [1]: 17.2
combination cScore with adagrasib [2]: 7.34
combination cScore with adagrasib [3]: -5.7

CC(C)C[C@H](NC(=O)[C@H](Cc1ccccc1)NC(=O)c1cnccn1)B(O)O [Bortezomib] + C=C(F)C(=O)N1CCN(c2nc(OC[C@@H]3CCCN3C)nc3c2CCN(c2cccc4cccc(Cl)c24)C3)C[C@@H]1CC#N [adagrasib]
combination cScore with adagrasib [1]: 4.5
combination cScore with adagrasib [2]: -1.68
combination cScore with adagrasib [3]: 0

COc1cc(Nc2c(C#N)cnc3cc(OCCCN4CCN(C)CC4)c(OC)cc23)c(Cl)cc1Cl [Bosutinib] + C=C(F)C(=O)N1CCN(c2nc(OC[C@@H]3CCCN3C)nc3c2CCN(c2cccc4cccc(Cl)c24)C3)C[C@@H]1CC#N [adagrasib]
combination cScore with adagrasib [1]: 14.5
combination cScore with adagrasib [2]: 6.35
combination cScore with adagrasib [3]: 1.58

CC[C@H](Nc1ncnc2[nH]cnc12)c1nc2cccc(F)c2c(=O)n1-c1ccccc1 [Cal-101] + C=C(F)C(=O)N1CCN(c2nc(OC[C@@H]3CCCN3C)nc3c2CCN(c2cccc4cccc(Cl)c24)C3)C[C@@H]1CC#N [adagrasib]
combination cScore with adagrasib [1]: 14.1
combination cScore with adagrasib [2]: 1.53
combination cScore with adagrasib [3]: 5.08

O=P1(N(CCCl)CCCl)NCCCO1 (stereo not given) [Cyclophosphamide] + C=C(F)C(=O)N1CCN(c2nc(OC[C@@H]3CCCN3C)nc3c2CCN(c2cccc4cccc(Cl)c24)C3)C[C@@H]1CC#N [adagrasib]
combination cScore with adagrasib [1]: -0.77
combination cScore with adagrasib [2]: -0.5
combination cScore with adagrasib [3]: -0.63

Cc1nc(Nc2ncc(C(=O)Nc3c(C)cccc3Cl)s2)cc(N2CCN(CCO)CC2)n1 [Dasatinib] + C=C(F)C(=O)N1CCN(c2nc(OC[C@@H]3CCCN3C)nc3c2CCN(c2cccc4cccc(Cl)c24)C3)C[C@@H]1CC#N [adagrasib]
combination cScore with adagrasib [1]: 42
combination cScore with adagrasib [2]: 14.7
combination cScore with adagrasib [3]: 8.94

COc1cccc2c1C(=O)c1c(O)c3c(c(O)c1C2=O)C[C@@](O)(C(C)=O)C[C@@H]3O[C@H]1C[C@H](N)[C@H](O)[C@H](C)O1 [Daunorubicin] + C=C(F)C(=O)N1CCN(c2nc(OC[C@@H]3CCCN3C)nc3c2CCN(c2cccc4cccc(Cl)c24)C3)C[C@@H]1CC#N [adagrasib]
combination cScore with adagrasib [1]: 4.15
combination cScore with adagrasib [2]: 4.77
combination cScore with adagrasib [3]: -0.64
